According to patent US6737383B1, “Herbicidal oxadiazolidines” (priority 1999, dated 2004):

Legend:
surinam grass = assay: Test B pre/postemergence surinam grass; assay type: in vivo, Brachiaria decumbens
In short: (§1)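 Herbicidal effect was estimated by eye on a ten-point control scale after plants spent twelve to sixteen days in a greenhouse following soil or foliar treatment. Foliar sprays targeted plants at one to four leaves; all doses were formulated in a non-phytotoxic solvent with surfactant.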

crabgrass = assay: Test B pre/postemergence crabgrass; assay type: in vivo, Digitaria sanguinalis
In short: as §1

purple nutsedge = assay: Test B pre/postemergence purple nutsedge; assay type: in vivo, Cyperus rotundus
In short: as §1

wheat = assay: Test B pre/postemergence wheat; assay type: in vivo, Triticum aestivum; details: for Plant response rating, Wheat: Postemergence
In short: as §1

bedstraw = assay: Test B pre/postemergence bedstraw; assay type: in vivo, Galium aparine; details: for Plant response rating, Bedstraw: Postemergence
In short: as §1

soybean = assay: Test B pre/postemergence soybean; assay type: in vivo, Glycine max; details: for Plant response rating, Soybean: Postemergence
In short: as §1

rape = assay: Test B pre/postemergence rape; assay type: in vivo, Brassica napus
In short: as §1

giant foxtail = assay: Test B pre/postemergence giant foxtail; assay type: in vivo, Setaria faberii
In short: as §1

corn = assay: Test B pre/postemergence corn; assay type: in vivo, Zea mays
In short: as §1

cocklebur = assay: Test B pre/postemergence cocklebur; assay type: in vivo, Xanthium strumarium
In short: as §1

blackgrass = assay: Test B pre/postemergence blackgrass; assay type: in vivo, Alopecurus myosuroides
In short: as §1

sugar beet = assay: Test B pre/postemergence sugar beet; assay type: in vivo, Beta vulgaris; details: for Plant response rating, Sugarbeets: Postemergence
In short: as §1

morningglory = assay: Test B pre/postemergence morningglory; assay type: in vivo, Ipomoea hederacea
In short: as §1

velvetleaf = assay: Test B pre/postemergence velvetleaf; assay type: in vivo, Abutilon theophrasti; details: for Plant response rating, Velvetleaf: Postemergence
In short: as §1

wild oat = assay: Test B pre/postemergence wild oat; assay type: in vivo, Avena fatua; details: for Plant response rating, Wild oats: Postemergence
In short: as §1

pigweed = assay: Test B pre/postemergence pigweed; assay type: in vivo, Amaranthus retroflexus; details: for Plant response rating, Redroot pigweed: Postemergence
In short: as §1

[1] = Postemergence, Rate 62 g/ha, scale of 0 to 10, 0 is no effect, 10 is complete control
[2] = Postemergence, Rate 125 g/ha, scale 0 to 10, 0 is no effect, 10 is complete control
[3] = Postemergence, Rate 500 g/ha, scale of 0 to 10 where 0 is no effect and 10 is complete control
[4] = Preemergence, Rate 62 g/ha, scale 0 to 10 (0 no effect, 10 complete control)
[5] = Preemergence, Rate 125 g/ha, scale 0 to 10, 0 is no effect, 10 is complete control
[6] = Preemergence, Rate 500 g/ha, scale of 0 to 10 where 0 is no effect and 10 is complete control
[7] = Rate 250 g/ha, Postemergence, scale of 0 to 10 where 0 is no effect and 10 is complete control
[8] = Rate 500 g/ha, scale of 0 to 10 where 0 is no effect and 10 is complete control
[9] = Rate 250 g/ha, scale of 0 to 10 where 0 is no effect and 10 is complete control

CC(=O)C(C)n1c(=O)on(C(=O)N(c2ccccc2)C(C)C)c1=O (centres unmarked) [Compound 576]
B. signalgrass plant response rating (surinam grass; [1]): 0 | B. signalgrass plant response rating (surinam grass; [2]): 0 | Plant response rating, B. signalgrass (surinam grass; [3]): 2 | B. signalgrass plant response rating (surinam grass; [4]): 0 | B. signalgrass plant response rating (surinam grass; [5]): 3 | B. signalgrass plant response rating (0 to 10 scale, 0 is no effect, 10 is complete control) (surinam grass; Preemergence, Rate 250 g/ha): 6 | B. signalgrass plant response rating (surinam grass; [6]): 9 | Plant response rating, B. signalgrass (surinam grass; [7]): 0 | Crabgrass plant response rating (crabgrass; [1]): 2 | Crabgrass plant response rating (crabgrass; [2]): 3 | Plant response rating, Crabgrass (crabgrass; [3]): 9 | Crabgrass plant response rating (crabgrass; [4]): 0 | Crabgrass plant response rating (crabgrass; [5]): 4 | Crabgrass plant response rating (0 to 10 scale) (crabgrass; Preemergence, Rate 250 g/ha): 9 | Crabgrass plant response rating (crabgrass; [6]): 9 | Plant response rating, Crabgrass (crabgrass; [7]): 9 | Nutsedge plant response rating (purple nutsedge; [1]): 0 | Nutsedge plant response rating (purple nutsedge; [2]): 0 | Nutsedge plant response rating (purple nutsedge; [4]): 0 | Nutsedge plant response rating (purple nutsedge; [5]): 0 | Nutsedge plant response rating (0 to 10 scale) (purple nutsedge; Preemergence, Rate 250 g/ha): 0 | Nutsedge plant response rating (purple nutsedge; [6]): 8 | Plant response rating, Nutsedge (purple nutsedge; [7]): 0 | Plant response rating, Wheat (wheat; [8]): 0 | Wheat plant response rating (wheat; [4]): 0 | Wheat plant response rating (wheat; [5]): 6 | Wheat plant response rating (0 to 10 scale) (wheat; Preemergence, Rate 250 g/ha): 8 | Wheat plant response rating (wheat; [6]): 8 | Plant response rating, Wheat (wheat; [9]): 0 | Plant response rating, Bedstraw (bedstraw; [8]): 9 | Bedstraw plant response rating (bedstraw; [4]): 0 | Bedstraw plant response rating (bedstraw; [5]): 0 | Bedstraw plant response rating (0 to 10 scale) (bedstraw; Preemergence, Rate 250 g/ha): 0 | Bedstraw plant response rating (bedstraw; [6]): 0 | Plant response rating, Bedstraw (bedstraw; [9]): 5 | Plant response rating, Soybean (soybean; [8]): 4 | Soybean plant response rating (soybean; [4]): 0 | Soybean plant response rating (soybean; [5]): 0 | Soybean plant response rating (0 to 10 scale) (soybean; Preemergence, Rate 250 g/ha): 0 | Soybean plant response rating (soybean; [6]): 0 | Plant response rating, Soybean (soybean; [9]): 3 | Rape plant response rating (rape; [1]): 0 | Rape plant response rating (rape; [2]): 0 | Plant response rating, Rape (rape; [3]): 0 | Rape plant response rating (rape; [4]): 0 | Rape plant response rating (rape; [5]): 0 | Rape plant response rating (0 to 10 scale) (rape; Preemergence, Rate 250 g/ha): 2 | Rape plant response rating (rape; [6]): 7 | Plant response rating, Rape (rape; [7]): 0 | Giant foxtail plant response rating (giant foxtail; [1]): 2 | Giant foxtail plant response rating (giant foxtail; [2]): 3 | Plant response rating, Giant foxtail (giant foxtail; [3]): 8 | Giant foxtail plant response rating (giant foxtail; [4]): 2 | Giant foxtail plant response rating (giant foxtail; [5]): 4 | Giant foxtail plant response rating (0 to 10 scale) (giant foxtail; Preemergence, Rate 250 g/ha): 9 | Giant foxtail plant response rating (giant foxtail; [6]): 9 | Plant response rating, Giant foxtail (giant foxtail; [7]): 7 | Corn plant response rating (corn; [1]): 0 | Corn plant response rating (corn; [2]): 0 | Plant response rating, Corn (corn; [3]): 4 | Corn plant response rating (corn; [4]): 0 | Corn plant response rating (corn; [5]): 0 | Corn plant response rating (0 to 10 scale) (corn; Preemergence, Rate 250 g/ha): 0 | Corn plant response rating (corn; [6]): 2 | Plant response rating, Corn (corn; [7]): 2 | Cocklebur plant response rating (cocklebur; [1]): 0 | Cocklebur plant response rating (cocklebur; [2]): 0 | Plant response rating, Cocklebur (cocklebur; [3]): 0 | Cocklebur plant response rating (cocklebur; [4]): 0 | Cocklebur plant response rating (cocklebur; [5]): 0 | Cocklebur plant response rating (0 to 10 scale) (cocklebur; Preemergence, Rate 250 g/ha): 0 | Cocklebur plant response rating (cocklebur; [6]): 0 | Plant response rating, Cocklebur (cocklebur; [7]): 0 | Blackgrass plant response rating (blackgrass; [1]): 0 | Blackgrass plant response rating (blackgrass; [2]): 0 | Plant response rating, Blackgrass (blackgrass; [3]): 7 | Blackgrass plant response rating (blackgrass; [4]): 0 | Blackgrass plant response rating (blackgrass; [5]): 3 | Blackgrass plant response rating (0 to 10 scale) (blackgrass; Preemergence, Rate 250 g/ha): 6 | Blackgrass plant response rating (blackgrass; [6]): 9 | Plant response rating, Blackgrass (blackgrass; [7]): 2 | Plant response rating, Sugarbeets (sugar beet; [8]): 0 | Sugarbeets plant response rating (sugar beet; [4]): 0 | Sugarbeets plant response rating (sugar beet; [5]): 0 | Sugarbeets plant response rating (0 to 10 scale) (sugar beet; Preemergence, Rate 250 g/ha): 4 | Sugarbeets plant response rating (sugar beet; [6]): 6 | Plant response rating, Sugarbeets (sugar beet; [9]): 0 | Morningglory plant response rating (morningglory; [1]): 2 | Morningglory plant response rating (morningglory; [2]): 2 | Plant response rating, Morningglory (morningglory; [3]): 4 | Morningglory plant response rating (morningglory; [4]): 0 | Morningglory plant response rating (morningglory; [5]): 0 | Morningglory plant response rating (0 to 10 scale) (morningglory; Preemergence, Rate 250 g/ha): 0 | Morningglory plant response rating (morningglory; [6]): 0 | Plant response rating, Morningglory (morningglory; [7]): 4 | Plant response rating, Velvetleaf (velvetleaf; [8]): 0 | Velvetleaf plant response rating (velvetleaf; [4]): 0 | Velvetleaf plant response rating (velvetleaf; [5]): 0 | Velvetleaf plant response rating (0 to 10 scale) (velvetleaf; Preemergence, Rate 250 g/ha): 0 | Velvetleaf plant response rating (velvetleaf; [6]): 3 | Plant response rating, Velvetleaf (velvetleaf; [9]): 0 | Plant response rating, Wild oats (wild oat; [8]): 0 | Wild oats plant response rating (wild oat; [4]): 0 | Wild oats plant response rating (wild oat; [5]): 0 | Wild oats plant response rating (0 to 10 scale) (wild oat; Preemergence, Rate 250 g/ha): 3 | Wild oats plant response rating (wild oat; [6]): 8 | Plant response rating, Wild oats (wild oat; [9]): 0 | Plant response rating, Redroot pigweed (pigweed; [8]): 4 | Redroot pigweed plant response rating (pigweed; [4]): 0 | Redroot pigweed plant response rating (pigweed; [5]): 9 | Redroot pigweed plant response rating (0 to 10 scale) (pigweed; Preemergence, Rate 250 g/ha): 10 | Redroot pigweed plant response rating (pigweed; [6]): 10 | Plant response rating, Redroot pigweed (pigweed; [9]): 0
